By logP is commonly meant a log measure of how a compound divides between an organic and an aqueous phase. High values mean a more lipophilic compound, low ones a more hydrophilic compound. In the case of `c1ccc(-c2c3ccccc3c(-c3ccccc3)c3ccccc23)cc1`, the logP was 8.46.

As for `c1cc2ccc3ccc4ccc5ccc6ccc1c1c2c3c4c5c61`, the logP was 7.64.

Compound `c1ccc2c(c1)ccc1c2ccc2ccc3ccccc3c21` displayed a logP of 7.11.

`c1ccc2c(c1)Cc1ccccc1O2` registered a logP of 4.23.

`c1ccc2c(c1)cc1ccc3cccc4c5ccccc5c2c1c34` yielded a logP of 7.71.

`c1cc2ccc3cc4cccc5ccc6cc(c1)c2c3c6c54` registered a logP of 7.04.

The compound `c1csc(-c2cccs2)c1` returned a logP of 3.75.

On to `c1ccc(-c2ccccn2)nc1`, for which the logP is 1.5.

Turning to `c1ccc(-c2cccc(-c3ccccn3)n2)nc1`, the log partition coefficient (logP) came out at 1.96.

Regarding `c1ccc2cc3c(cc2c1)oc1ccccc13`, the logP was found to be 5.05.

On to `c1cc(-c2ccncc2)ccn1`, for which the logP is 1.28.

With `c1ccc2c(c1)c1cccc3ccc4cccc2c4c31`, the log partition coefficient (logP) turned out to be 6.44.

Compound `c1ccc2c(c1)ccc1c2ccc2c3ccccc3ccc21` showed a logP of 7.11.

In the case of `c1ccc2cc3c(cc2c1)sc1ccccc13`, the logP is 5.34.

In the case of `c1ccc2cc3cc4cc5ccccc5cc4cc3cc2c1`, the logP worked out at 7.11.

`c1ccc2c(c1)Sc1ccccc1S2` displayed a log partition coefficient (logP) of 4.47.

For `c1ccc2cc3c(ccc4c5ccccc5ccc34)cc2c1`, the logP came out at 7.11.

On to `c1ccc2c(c1)c1ccccc1c1c3ccccc3c3ccccc3c21`, for which the logP was 8.39.

These data come from the OPERA property sets (Mansouri et al. 2018).
